Measured values reported in ChEMBL document CHEMBL3792312, “Synthesis and docking studies of pyrazine-thiazolidinone hybrid scaffold targeting dormant tuberculosis” (Bioorg Med Chem Lett, 2016).
≈ marks a conversion by molar mass, not a printed value.

How the values were obtained:
[1] = test system: Mycobacterium tuberculosis; assay: Antitubercular activity against dormant Mycobacterium tuberculosis H37Ra at 30 ug after 12 days by XTT-Menadione assay; type: functional
[2] = test system: Mycobacterium tuberculosis; assay: Antitubercular activity against dormant Mycobacterium tuberculosis H37Ra at 10 ug after 12 days by XTT-Menadione assay; type: functional
[3] = test system: Mycobacterium tuberculosis; assay: Antitubercular activity against dormant Mycobacterium tuberculosis H37Ra at 3 ug after 12 days by XTT-Menadione assay; type: functional
[4] = test system: Mycolicibacterium smegmatis; assay: Antitubercular activity against dormant Mycobacterium smegmatis MC2 155 at 30 ug after 12 days by XTT-Menadione assay; type: functional, str. MC2 155
[5] = test system: Mycolicibacterium smegmatis; assay: Antitubercular activity against dormant Mycobacterium smegmatis MC2 155 at 10 ug after 12 days by XTT-Menadione assay; type: functional, str. MC2 155
[6] = test system: Mycolicibacterium smegmatis; assay: Antitubercular activity against dormant Mycobacterium smegmatis MC2 155 at 3 ug after 12 days by XTT-Menadione assay; type: functional, str. MC2 155
Escherichia coli [7] = assay: Antibacterial activity against Escherichia coli at 30 ug after 8 hrs; type: functional
Escherichia coli [8] = assay: Antibacterial activity against Escherichia coli at 10 ug after 8 hrs; type: functional
Escherichia coli [9] = assay: Antibacterial activity against Escherichia coli at 3 ug after 8 hrs; type: functional
Pseudomonas fluorescens [10] = assay: Antibacterial activity against Pseudomonas fluorescens at 30 ug after 8 hrs; type: functional
Pseudomonas fluorescens [11] = assay: Antibacterial activity against Pseudomonas fluorescens at 10 ug after 8 hrs; type: functional
Pseudomonas fluorescens [12] = assay: Antibacterial activity against Pseudomonas fluorescens at 3 ug after 8 hrs; type: functional
Staphylococcus aureus [13] = assay: Antibacterial activity against Staphylococcus aureus at 30 ug after 12 hrs; type: functional
Staphylococcus aureus [14] = assay: Antibacterial activity against Staphylococcus aureus at 10 ug after 12 hrs; type: functional
Staphylococcus aureus [15] = assay: Antibacterial activity against Staphylococcus aureus at 3 ug after 12 hrs; type: functional
Bacillus subtilis [16] = assay: Antibacterial activity against Bacillus subtilis at 30 ug after 12 hrs; type: functional
Bacillus subtilis [17] = assay: Antibacterial activity against Bacillus subtilis at 10 ug after 12 hrs; type: functional
Bacillus subtilis [18] = assay: Antibacterial activity against Bacillus subtilis at 3 ug after 12 hrs; type: functional
[19] = test system: Mycobacterium tuberculosis; assay: Antitubercular activity against dormant Mycobacterium tuberculosis H37Ra after 12 days by XTT-Menadione assay; type: functional, organism-based; conditions: 288 h

| SMILES | inhibition (INH) [1] [%] | inhibition (INH) [2] [%] | inhibition (INH) [3] [%] | inhibition (INH) [4] [%] | inhibition (INH) [5] [%] | inhibition (INH) [6] [%] | inhibition (INH) (Escherichia coli [7]) [%] | inhibition (INH) (Escherichia coli [8]) [%] | inhibition (INH) (Escherichia coli [9]) [%] | inhibition (INH) (Pseudomonas fluorescens [10]) [%] | inhibition (INH) (Pseudomonas fluorescens [11]) [%] | inhibition (INH) (Pseudomonas fluorescens [12]) [%] | inhibition (INH) (Staphylococcus aureus [13]) [%] | inhibition (INH) (Staphylococcus aureus [14]) [%] | inhibition (INH) (Staphylococcus aureus [15]) [%] | inhibition (INH) (Bacillus subtilis [16]) [%] | inhibition (INH) (Bacillus subtilis [17]) [%] | inhibition (INH) (Bacillus subtilis [18]) [%] | MIC [19] [ng/mL] |
| --- | --- | --- | --- | --- | --- | --- | --- | --- | --- | --- | --- | --- | --- | --- | --- | --- | --- | --- | --- |
| Nc1nccnc1C(=O)NN1C(=O)CS[C@H]1c1ccc([N+](=O)[O-])cc1 | 49.69 | 43 | 39.54 | -10.9967 | -28.273 | 34.28 | 37.49 | 57.79 | 42.143 | -20.68 | 24.31 | 37.2 | -21.02 | -46.62 | 16.74 | -19.53 | -1.56 | 0.25 | – |
| Cc1cnc(C(=O)NN2C(=O)CSC2c2ccc(O)cc2)cn1 (centres undefined) | 75.49 | 70.55 | 64.79 | 7.295 | 15.78 | 30.34 | 32.37 | -32.72 | -51.23 | -20.73 | 29.13 | 29.07 | -4.04 | 6.02 | -7.09 | 16.21 | 19.81 | -6.172 | – |
| Nc1nccnc1C(=O)NN1C(=O)CSC1c1ccc(F)cc1 (centres undefined) | 71.96 | 67.84 | 68.04 | 37.72 | -3.707 | 28.7381 | 50.12 | 45 | 41.47 | 42.8 | 40.76 | 27.83 | 8.99 | -50.49 | -14.5 | 3.63 | 21.54 | 14.29 | – |
| CO[C@H]1/C=C/O[C@@]2(C)Oc3c(C)c(O)c4c(O)c(c(/C=N/N5CCN(C)CC5)c(O)c4c3C2=O)NC(=O)/C(C)=C\C=C\[C@H](C)[C@H](O)[C@@H](C)[C@@H](O)[C@@H](C)[C@H](OC(C)=O)[C@@H]1C [RIFAMPIN] | – | – | – | – | – | – | – | – | – | – | – | – | – | – | – | – | – | – | 2.1 (≈ 2.55 nM) |
| CN(C)c1ccc(C2SCC(=O)N2NC(=O)c2nccnc2N)cc1 (centres undefined) | 69.04 | 66.92 | 63.27 | -93.9118 | 38.8231 | 34.15 | 40.76 | 62.03 | 49.71 | 34.38 | 22.64 | 35.05 | 56.34 | 9.5 | 31.97 | 0.43 | 9.92 | 3.21 | – |
| Nc1nccnc1C(=O)NN1C(=O)CSC1c1ccc(Cl)cc1 (centres undefined) | 72.85 | 70.78 | 62.36 | 52.67 | 64.17 | 30.65 | 38.45 | -65.92 | -8.913 | -17.98 | 13.99 | 21.22 | -34.8 | 14.12 | 52.81 | 2.22 | -4.06 | -14.42 | – |
| NC(=O)c1cnccn1 [PYRAZINAMIDE] | – | – | – | – | – | – | – | – | – | – | – | – | – | – | – | – | – | – | > 10000 |
| COc1ccc(C2SCC(=O)N2NC(=O)c2cnc(C)cn2)cc1OC (centres undefined) | 73.51 | 72.12 | 68.91 | 9.358 | 46.67 | 8.925 | -11.14 | -59.8 | -46.22 | -5.41 | 28.51 | -2.69 | 2.4 | -14.6 | 48.7 | 14.25 | 18.53 | 13.25 | – |
| COc1ccc(C2SCC(=O)N2NC(=O)c2cnc(C)cn2)cc1 (centres undefined) | 71.41 | 65.76 | 63.11 | 27.97 | 11.4077 | 46.39 | 17.95 | -9.96 | 9.978 | 29.02 | 19.06 | -0.838 | -29.6 | -29.27 | -9.85 | 18.72 | -8.08 | 19.31 | – |
| Cc1cnc(C(=O)NN2C(=O)CSC2c2ccccc2)cn1 (centres undefined) | 68.38 | 66.69 | 55.04 | 61.3106 | 24.96 | 34.46 | 42.85 | 56.76 | 60.45 | 35.1 | 33.57 | 19.67 | 39.81 | 41.07 | -39.23 | -9.36 | 16.03 | 17.71 | – |
| Nc1nccnc1C(=O)NN1C(=O)CSC1c1ccc(O)cc1 (centres undefined) | 70.73 | 69.84 | 65.54 | 13.22 | 27.68 | 36.11 | 15.24 | 14.06 | 56.462 | 43.72 | 16.61 | 30.55 | 43.79 | 40.89 | 25.87 | 4.31 | 16.8 | 13.88 | – |
| C[C@H]1COC2(CCN(c3nc(=O)c4cc(C(F)(F)F)cc([N+](=O)[O-])c4s3)CC2)O1 [BTZ-043] | – | – | – | – | – | – | – | – | – | – | – | – | – | – | – | – | – | – | 3 (≈ 6.95 nM) |
| NNC(=O)c1ccncc1 [ISONIAZID] | – | – | – | – | – | – | – | – | – | – | – | – | – | – | – | – | – | – | 75 (≈ 547 nM) |
| O=C(NN1C(=O)CSC1c1ccc(O)cc1)c1cnccn1 (centres undefined) | 53.37 | 45.24 | 40.52 | 45.5719 | 31.9215 | 28.83 | 39.38 | 49.76 | 41.07 | 27.67 | 5.678 | 9.87 | 30.2 | 16.31 | 24.23 | 1.8 | -7.31 | -5.94 | – |
